Measurements reported in patent publication US11028128B2, “Inhibition of the aggregation of transthyretin by specific binding of peptides to aggregation-driving segments” (THE REGENTS OF THE UNIVERSITY OF CALIFORNIA, priority 2016, dated 2021).
Where no end group is shown, it is not given here.

Key:
[1] = test system: recombinant wild type TTR and ATTR-D38A seeds; settings: 180 μM peptide, 0.5 mg/ml recombinant wild type TTR, 30 ng/μl ATTR-D38A seeds, 37° C.; N-methylated peptide as noted in the cell
Method: (§1) Fibril extracts were used to seed the formation of new aggregates from recombinant TTR. In order to further purify the extracts, they were treated with 1% sodium dodecyl sulfate and the soluble fraction was discarded after centrifugation at 13,000 rpm for 5 minutes. This process was repeated two times. The sample was washed with distilled water three times by centrifugation, and then sonicated in cycles of 5 seconds on, 5 seconds off, for a total of 10 minutes, at minimum intensity (18%). The protein content was measured using the Pierce™ BCA Protein Assay Kit (ThermoFisher Scientific). Seeds were added to 0.5 mg/ml recombinant TTR in a final volume of 200 μl of 5 μM thioflavin T, 10 mM Sodium Acetate pH 4.3, 100 mM KCl, and 10 mM EDTA. Unless labeled otherwise, cardiac seeds were analyzed at 30 ng/μl concentration and seeds extracted from adipose tissue were analyzed at 5 ng/μl. Thioflavin fluorescence emission was measured at 482 nm with absorption at 440 nm in a Varioskan Flash (ThermoFisher Scientific) or FLUOstar Omega (BMG LabTech) plate readers. Plates were incubated at 37° C. for 20-72 h as labeled with cycles of 9 min shake (700 rpm double orbital) and 1 min rest throughout the incubation. Measurements were taken with automatic gain if read in Varioskan Flash, or with a manual gain of 1,000 if read in FLUOstar Omega, every 10 min, bottom read. We normalized all our assays by subtracting ThT signal at initial point of incubation. Figures show ThT signal in arbitrary units (a.u.). Fibril formation was confirmed by TEM.
(§2) Amyloid seeding assays were performed as described above. 180 μM peptide was added to 0.5 mg/ml recombinant wild type TTR and 30 ng/μl ATTR-D38A seeds. Amyloid seeding was measured after 24 hour of incubation at 37° C. by ThT fluorescence. Thioflavin T signal obtained in the absence of peptide was considered 100%.

[2] = biological target: T1, recombinant wild type TTR (Homo sapiens, UniProt P02766); test: TTR aggregation assay in the absence of seeds (absorbance at 400 nm); type: biochemical; settings: 1 mg/ml recombinant wild type TTR, increasing amounts of stabilizer, 4 days
T1 construct: made in house; host or cells: E. coli
Method: Next we tested the ability of compounds and mutations that stabilize native, tetrameric TTR to halt amyloid formation induced by disease-related amyloid seeds. […] For these aggregation assays, we incubated 1 mg/ml recombinant wild type TTR with increasing amounts of stabilizers.
TTR aggregation assays are described previously (32). […] Protein aggregation was followed by absorbance at 400 nm, anti-TTR immuno-dot blot of the insoluble fraction, and/or transmission electron microscopy.

[3] = biological target: recombinant wild type TTR and ATTR-D38A seeds (Homo sapiens, UniProt P02766); settings: 0.5 mg/ml recombinant TTR, 30 ng/μl ATTR-D38A seeds, increasing compound concentrations
Method: as §1, §2

fibril formation with ATTR-D38A ex-vivo seeds in presence of stabilizer [3]	Molecule	B. ThT signal (20h, no inhibitor was normalized to 100%, SD = 11.42) [1]	TTR aggregation in the absence of seeds [2]
–	RRRRPYSYSTTAVVTN (not fully specified (residue 12)) [TabH1]	32.48 ± 2.39 (N-me-E11) %	–
did not reduce or delay fibril formation	O=C(O)c1ccc2nc(-c3cc(Cl)cc(Cl)c3)oc2c1 [tafamidis]	–	considerably diminished in a dose-dependent manner
did not reduce or delay fibril formation	O=C(O)c1cc(-c2ccc(F)cc2F)ccc1O [diflunisal]	–	considerably diminished in a dose-dependent manner
–	RRRRPFHEHAEVVFTA [TabF1]	60.45 ± 3.90 (N-me-A12) %	–
